# Results reported in US20200377505A1, “BENZIMIDAZOLES AND AZA-BENZIMIDAZOLES, AND METHODS OF USE THEREOF” (Goldfinch Bio., Inc., priority 2017, published 2020).
# Key:
# [1] = molecular target: T1, human TRPC5 (Homo sapiens, UniProt Q9UL62); assay: TRPC5 fluorescence-based assay (Ca2+ flux assay in FLIPR format), cells overexpressing TRPC5; format: cell-based; conditions: 5 μM of test compound, following Carbachol stimulation
# T1 construct: expressed in transfected cells; host or cells: HEK 293
# T1 sequence (Q9UL62 1-973): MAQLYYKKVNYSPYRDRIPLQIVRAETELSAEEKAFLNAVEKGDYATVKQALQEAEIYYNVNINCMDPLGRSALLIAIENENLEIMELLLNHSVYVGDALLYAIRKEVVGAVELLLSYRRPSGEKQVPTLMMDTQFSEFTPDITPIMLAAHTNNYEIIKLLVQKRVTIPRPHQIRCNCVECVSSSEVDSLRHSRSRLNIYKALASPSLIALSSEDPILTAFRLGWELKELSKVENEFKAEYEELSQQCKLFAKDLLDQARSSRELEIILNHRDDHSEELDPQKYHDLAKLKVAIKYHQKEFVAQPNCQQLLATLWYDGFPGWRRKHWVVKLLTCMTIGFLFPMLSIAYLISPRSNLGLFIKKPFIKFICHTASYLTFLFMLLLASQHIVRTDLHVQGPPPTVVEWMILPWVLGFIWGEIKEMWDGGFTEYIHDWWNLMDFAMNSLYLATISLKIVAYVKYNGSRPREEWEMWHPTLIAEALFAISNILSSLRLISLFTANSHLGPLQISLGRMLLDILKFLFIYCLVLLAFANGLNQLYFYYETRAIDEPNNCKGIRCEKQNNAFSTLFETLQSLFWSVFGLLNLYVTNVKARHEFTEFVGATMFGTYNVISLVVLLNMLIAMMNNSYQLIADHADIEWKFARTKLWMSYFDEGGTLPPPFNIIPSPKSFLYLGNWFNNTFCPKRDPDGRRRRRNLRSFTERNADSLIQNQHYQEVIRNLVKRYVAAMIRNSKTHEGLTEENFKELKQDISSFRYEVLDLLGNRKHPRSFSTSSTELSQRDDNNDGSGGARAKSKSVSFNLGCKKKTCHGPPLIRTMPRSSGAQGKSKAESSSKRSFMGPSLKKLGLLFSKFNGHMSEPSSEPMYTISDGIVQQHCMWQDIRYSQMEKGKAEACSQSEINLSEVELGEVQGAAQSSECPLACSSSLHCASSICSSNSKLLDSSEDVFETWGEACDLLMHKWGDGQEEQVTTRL
# [2] = molecular target: T2, human TRPC6 (Homo sapiens, UniProt Q9Y210); assay: TRPC6 fluorescence-based assay (Ca2+ flux assay in FLIPR format), cells overexpressing TRPC6; format: cell-based; conditions: 5 μM of test compound, following Carbachol stimulation
# T2 construct: expressed in transfected cells; host or cells: HEK 293
# T2 sequence (Q9Y210 1-931): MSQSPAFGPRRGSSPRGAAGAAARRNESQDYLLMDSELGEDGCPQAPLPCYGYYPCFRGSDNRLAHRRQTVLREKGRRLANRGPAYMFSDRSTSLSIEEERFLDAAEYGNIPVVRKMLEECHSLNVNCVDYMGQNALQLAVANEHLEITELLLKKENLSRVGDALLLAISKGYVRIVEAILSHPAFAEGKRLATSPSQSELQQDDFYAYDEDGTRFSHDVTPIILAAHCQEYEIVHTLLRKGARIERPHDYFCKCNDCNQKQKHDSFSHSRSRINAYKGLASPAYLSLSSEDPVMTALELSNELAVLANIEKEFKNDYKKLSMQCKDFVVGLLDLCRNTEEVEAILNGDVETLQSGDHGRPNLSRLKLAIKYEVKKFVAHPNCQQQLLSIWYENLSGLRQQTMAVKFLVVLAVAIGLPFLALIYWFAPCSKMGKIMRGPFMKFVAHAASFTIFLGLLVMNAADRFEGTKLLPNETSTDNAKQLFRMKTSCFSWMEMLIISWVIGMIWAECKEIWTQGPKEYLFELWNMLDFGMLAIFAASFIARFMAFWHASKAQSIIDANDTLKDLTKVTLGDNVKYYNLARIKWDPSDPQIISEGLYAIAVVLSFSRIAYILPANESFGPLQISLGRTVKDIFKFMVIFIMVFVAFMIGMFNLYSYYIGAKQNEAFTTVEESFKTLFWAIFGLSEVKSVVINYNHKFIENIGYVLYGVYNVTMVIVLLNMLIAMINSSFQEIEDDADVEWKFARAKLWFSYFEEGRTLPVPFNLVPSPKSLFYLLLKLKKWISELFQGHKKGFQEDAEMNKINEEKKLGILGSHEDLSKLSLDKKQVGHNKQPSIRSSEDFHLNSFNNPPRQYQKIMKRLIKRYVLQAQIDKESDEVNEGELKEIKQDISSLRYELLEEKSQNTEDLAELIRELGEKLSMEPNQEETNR
Structure (SMILES),inhibition at 5 µM [1] [%],inhibition at 5 µM [2] [%]
CCn1c(NCc2cccc(Br)c2)nc2ccccc21,39.9,54.1
CCCn1c(NCc2c[nH]c3ccccc23)nc2ccccc21,70.6,54.7
CCn1c(NCc2cc(C)ccc2O)nc2ccccc21,51.8,3.16
CCSc1nc2ccccc2n1Cc1cccc([N+](=O)[O-])c1,32.2,50
CCCCc1nc2ccccc2n1CC(=O)N1CCCC1c1nc2ccccc2s1 (centres unmarked),46.3,-0.71
Brc1cccc(CNc2nc3ccccc3n2CCN2CCCCC2)c1,55,51
COc1ccc(OCc2nc3ccccc3n2CCc2ccccc2)cc1,38.3,52
CCCCn1c(NCc2ccc(N(CC)CC)cc2)nc2ccccc21,28.7,30.3
CCn1c(NC2CCCCC2)nc2ccccc21,55.5,9.58
CCn1c(NCc2ccccc2O)nc2ccccc21,50,-8.69
COc1ccccc1NC(=O)Cn1c(C)nc2ccccc21,72.7,84.1
CCCCn1c(NCc2cccs2)nc2ccccc21 [drawing 80],66.1,81.3
C=CCn1c(NCc2cccs2)nc2ccccc21,50.7,14.6
CCCCCCn1c(NCc2ccccc2O)nc2ccccc21,61.3,21.9
COc1ccc(/C=N/c2nc3ccccc3n2Cc2ccccc2)cc1OC,74.3,90.5
O=C(Cn1c(NCCCO)nc2ccccc21)C12CC3CC(CC(C3)C1)C2,58.2,28.4
CCOc1ccccc1CNc1nc2ccccc2n1C,43.9,19.3
Cc1ccccc1Cn1c(C2CC2)nc2ccccc21,35.5,45.3
COc1ccc(/C=N/c2nc3ccccc3n2Cc2ccc(C)cc2)cc1,53.4,41.5
